The compounds below were run against T1, KMO mouse enzyme (Mus musculus, UniProt Q91WN4) (assay: KMO mouse enzyme assay: L-Kynurenine hydroxylation to 3-Hydroxy-Kynurenine monitored by LC/MS (MRM)). Conditions: compound at 10 μM; KMO enzyme from mouse liver mitochondria.
T1 construct: KMO enzyme prepared at Evotec from mouse liver (4-6 weeks old) via mitochondria isolation; from tissue; host or cells: mouse liver (4-6 weeks old), mitochondria isolation, prepared at Evotec
Type: biochemical
Procedure: A method of monitoring L-Kynurenine (KYN) hydroxylation to form 3-Hydroxy-Kynurenine (3OH-KYN) by LC/MS is described. Product is quantified by multiple reaction monitoring (MRM method).
• Compound: Stock concentrations: 10 mM in 100% DMSO • Enzyme: KMO enzyme prepared at Evotec from mouse liver (4-6 weeks old) via mitochondria isolation as described in the literature • Substrate: L-Kynurenine (Sigma: Cat# K3750, stock concentration: 10 mM in 100 mM potassium phosphate buffer, pH 7.4) Assay Conditions: […]

T1 sequence (Q91WN4 whole entry): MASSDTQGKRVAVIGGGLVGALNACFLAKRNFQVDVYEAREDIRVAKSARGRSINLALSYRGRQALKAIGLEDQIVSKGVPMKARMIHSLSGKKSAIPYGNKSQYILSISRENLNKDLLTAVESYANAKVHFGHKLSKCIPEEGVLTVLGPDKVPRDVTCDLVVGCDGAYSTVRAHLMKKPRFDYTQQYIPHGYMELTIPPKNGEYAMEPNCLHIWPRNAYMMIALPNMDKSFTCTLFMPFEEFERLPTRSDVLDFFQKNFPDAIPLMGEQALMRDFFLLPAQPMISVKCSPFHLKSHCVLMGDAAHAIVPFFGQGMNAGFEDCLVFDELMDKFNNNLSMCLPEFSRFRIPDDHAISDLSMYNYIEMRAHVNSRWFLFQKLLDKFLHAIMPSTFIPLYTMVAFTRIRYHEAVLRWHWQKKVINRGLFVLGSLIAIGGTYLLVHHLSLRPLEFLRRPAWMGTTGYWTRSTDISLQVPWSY

INH.Mouse @ 10 μM	SMILES
100.0	O=C(c1cc(-c2ccc(Cl)c(Cl)c2)ncn1)N1CC2(CC2)c2ccccc21 [[6-(3,4-Dichloro-phenyl)-pyrimidin-4-yl]-(1′,2′-dihydro-spiro[cyclopropane-1,3′-[3H]indol]-1′)-methanone]

Same assay, conditions: compound at 10 μM; KMO enzyme from mouse liver mitochondria; read-out: INH.Mouse @ 10 μM

inhibition at 10 µM [%]	SMILES
100	COC(=O)c1cc(-c2ccc(F)cc2F)ncn1 [6-(2,4-Difluoro-phenyl)-pyrimidine-4-carboxylic acid methyl ester]
100	CCNC(=O)c1cc(-c2cccc(Cl)c2)ncn1 [6-(3-Chloro-phenyl)-pyrimidine-4-carboxylic acid ethylamide]
96.3	COC(=O)c1cc(-c2cccc(C)c2)ncn1 [6-m-Tolyl-pyrimidine-4-carboxylic acid methyl ester]
92.7	COC(=O)c1cc(-c2ccc(F)c(C(F)(F)F)c2)ncn1 [6-(4-Fluoro-3-trifluoromethyl-phenyl)-pyrimidine-4-carboxylic acid methyl ester]
100	COC(=O)c1cc(-c2cccc(Cl)c2F)ncn1 [6-(3-Chloro-2-fluoro-phenyl)-pyrimidine-4-carboxylic acid methyl ester]
77.5	COC(=O)c1cc(-c2cccc(OC)c2)ncn1 [6-(3-Methoxy-phenyl)-pyrimidine-4-carboxylic acid methyl ester]
100	CN(C)C(=O)c1cc(-c2cccc(Cl)c2)ncn1 [6-(3-Chloro-phenyl)-pyrimidine-4-carboxylic acid dimethylamide]
100	COc1ccc(-c2cc(C(=O)O)ncn2)cc1 [6-(4-Methoxy-phenyl)-pyrimidine-4-carboxylic acid]
99.5	CS(=O)(=O)NC(=O)c1cc(-c2cccc(Cl)c2)ncn1 [N-[6-(3-Chloro-phenyl)-pyrimidine-4-carbonyl]-methanesulfonamide]
87.2	COC(=O)c1cc(-c2cncc(F)c2)ncn1 [6-(5-Fluoro-pyridin-3-yl)-pyrimidine-4-carboxylic acid methyl ester]
91	COc1ccncc1NC(=O)c1cc(-c2cccc(Cl)c2)ncn1 [6-(3-Chloro-phenyl)-pyrimidine-4-carboxylic acid (4-methoxy-pyridin-3-yl)-amide]
95.5	COC(=O)c1cc(-c2ccc(Cl)c(Cl)c2)nc(C)n1 [6-(3,4-Dichloro-phenyl)-2-methyl-pyrimidine-4-carboxylic acid methyl ester]
100	COC(=O)c1cc(-c2cccc(Cl)c2)ccn1 [4-(3-Chloro-phenyl)-pyridine-2-carboxylic acid methyl ester]
72.4	CCCNC(=O)c1cc(-c2cccc(Cl)c2)ncn1 [6-(3-Chloro-phenyl)-pyrimidine-4-carboxylic acid propylamide]
100	CNC(=O)c1cc(-c2cccc(Cl)c2)ncn1 [6-(3-Chloro-phenyl)-pyrimidine-4-carboxylic acid methylamide]
100	COC(=O)c1cc(-c2cccc(F)c2)ncn1 [6-(3-Fluoro-phenyl)-pyrimidine-4-carboxylic acid methyl ester]
100	COC(=O)c1cc(-c2cccc(Cl)c2)nc(C)n1 [6-(3-Chloro-phenyl)-2-methyl-pyrimidine-4-carboxylic acid methyl ester]

Continued, compound first:

SMILES	inhibition at 10 µM [%]
O=C(c1cc(-c2cccc(Cl)c2)ncn1)N1CCc2cnccc21 [[6-(3-Chloro-phenyl)-pyrimidin-4-yl]-(2,3-dihydro-pyrrolo[3,2-c]pyridin-1-yl)-methanone]	100
O=C(c1cc(-c2ccc(Cl)c(Cl)c2)ncn1)N1CCc2cc(F)ccc21 [[6-(3,4-Dichloro-phenyl)-pyrimidin-4-yl]-(5-fluoro-2,3-dihydro-indol-1-yl)-methanone]	100
CN(C(=O)c1cc(-c2cccc(Cl)c2)ncn1)c1ccc2c(c1)OC(F)(F)O2 [6-(3-Chloro-phenyl)-pyrimidine-4-carboxylic acid (2,2-difluoro-benzo[1,3]dioxol-5-yl)-methyl-amide]	98.7
Cn1cc(NC(=O)c2cc(-c3ccc(Cl)c(Cl)c3)ncn2)cn1 [6-(3,4-Dichloro-phenyl)-pyrimidine-4-carboxylic acid (1-methyl-1H-pyrazol-4-yl)-amide]	100
Cc1cc(NC(=O)c2cc(-c3cccc(Cl)c3)ncn2)on1 [6-(3-Chloro-phenyl)-pyrimidine-4-carboxylic acid (3-methyl-isoxazol-5-yl)-amide]	100
Cc1ncccc1NC(=O)c1cc(-c2cccc(Cl)c2)ncn1 [6-(3-Chloro-phenyl)-pyrimidine-4-carboxylic acid (2-methyl-pyridin-3-yl)-amide]	97.8
O=C(Nc1ncco1)c1cc(-c2cccc(Cl)c2)ncn1 [6-(3-Chloro-phenyl)-pyrimidine-4-carboxylic acid oxazol-2-ylamide]	100
O=C(Nc1nncs1)c1cc(-c2cccc(Cl)c2)ncn1 [6-(3-Chloro-phenyl)-pyrimidine-4-carboxylic acid [1,3,4]thiadiazol-2-ylamide]	97.4
O=C(O)c1cc(-c2cncc(Cl)c2)ncn1 [6-(5-Chloro-pyridin-3-yl)-pyrimidine-4-carboxylic acid]	91.7
O=C(NCc1ccncc1)c1cc(-c2ccc(Cl)c(Cl)c2)ncn1 [6-(3,4-Dichloro-phenyl)-pyrimidine-4-carboxylic acid (pyridin-4-ylmethyl)-amide]	95.5
O=C(c1cc(-c2ccc(Cl)c(Cl)c2)ncn1)N1CCc2ccccc21 [[6-(3,4-Dichloro-phenyl)-pyrimidin-4-yl]-(2,3-dihydro-indol-1-yl)-methanone]	100
O=C(Nc1cccnc1)c1cc(-c2ccc(Cl)c(Cl)c2)ncn1 [6-(3,4-Dichloro-phenyl)-pyrimidine-4-carboxylic acid pyridin-3-ylamide]	83.5
O=C(Nc1ncccn1)c1cc(-c2cccc(Cl)c2)ncn1 [6-(3-Chloro-phenyl)-pyrimidine-4-carboxylic acid pyrimidin-2-ylamide]	100
Cc1cccc(NC(=O)c2cc(-c3cccc(Cl)c3)ncn2)c1 [6-(3-Chloro-phenyl)-pyrimidine-4-carboxylic acid m-tolylamide]	96.6
O=C(c1cc(-c2cccc(Cl)c2)ncn1)N1CCc2cc(F)ccc21 [[6-(3-Chloro-phenyl)-pyrimidin-4-yl]-(5-fluoro-2,3-dihydro-indol-1-yl)-methanone]	100
O=C(Nc1ccc(N2CCOCC2)cc1)c1cc(-c2cccc(Cl)c2)ncn1 [6-(3-Chloro-phenyl)-pyrimidine-4-carboxylic acid (4-morpholin-4-yl-phenyl)-amide]	93.6

SMILES	inhibition at 10 µM [%]
Cc1ccc(NC(=O)c2cc(-c3cccc(Cl)c3)ncn2)cc1 [6-(3-Chloro-phenyl)-pyrimidine-4-carboxylic acid p-tolylamide]	100
O=C(NCc1cccnc1)c1cc(-c2cccc(Cl)c2)ncn1 [6-(3-Chloro-phenyl)-pyrimidine-4-carboxylic acid (pyridin-3-ylmethyl)-amide]	96.7
Cn1ccc(NC(=O)c2cc(-c3cccc(Cl)c3)ncn2)n1 [6-(3-Chloro-phenyl)-pyrimidine-4-carboxylic acid (1-methyl-1H-pyrazol-3-yl)-amide]	100
COc1cncc(NC(=O)c2cc(-c3ccc(Cl)c(Cl)c3)ncn2)c1 [6-(3,4-Dichloro-phenyl)-pyrimidine-4-carboxylic acid (5-methoxy-pyridin-3-yl)-amide]	100
COc1cncc(NC(=O)c2cc(-c3cccc(Cl)c3)ccn2)c1 [4-(3-Chloro-phenyl)-pyridine-2-carboxylic acid (5-methoxy-pyridin-3-yl)-amide]	53.8
Cc1nc(C(=O)O)cc(-c2cccc(Cl)c2)n1 [6-(3-Chloro-phenyl)-2-methyl-pyrimidine-4-carboxylic acid]	100
Cn1cc(NC(=O)c2cc(-c3cccc(Cl)c3)ncn2)cn1 [6-(3-Chloro-phenyl)-pyrimidine-4-carboxylic acid (1-methyl-1H-pyrazol-4-yl)-amide]	100
O=C(Nc1ccon1)c1cc(-c2cccc(Cl)c2)ncn1 [6-(3-Chloro-phenyl)-pyrimidine-4-carboxylic acid isoxazol-3-ylamide]	100
O=C(Nc1cccnc1)c1cc(-c2ccc(F)c(F)c2)ncn1 [6-(3,4-Difluoro-phenyl)-pyrimidine-4-carboxylic acid pyridin-3-ylamide]	84.7
O=C(Nc1cccnc1)c1cc(-c2cccc(Cl)c2)ncn1 [6-(3-Chloro-phenyl)-pyrimidine-4-carboxylic acid pyridin-3-ylamide]	98.6
O=C(Nc1nccs1)c1cc(-c2ccc(Cl)c(Cl)c2)ncn1 [6-(3,4-Dichloro-phenyl)-pyrimidine-4-carboxylic acid thiazol-2-ylamide]	83.7
O=C(Nc1ccccn1)c1cc(-c2cccc(Cl)c2)ncn1 [6-(3-Chloro-phenyl)-pyrimidine-4-carboxylic acid pyridin-2-ylamide]	100
O=C(O)c1cc(-c2cccc(Cl)c2)ccn1 [4-(3-Chloro-phenyl)-pyridine-2-carboxylic acid]	100
O=C(Nc1ccncc1)c1cc(-c2ccc(Cl)c(Cl)c2)ncn1 [6-(3,4-Dichloro-phenyl)-pyrimidine-4-carboxylic acid pyridin-4-ylamide]	90.1
O=C(Nc1ccccc1)c1cc(-c2cc(Cl)cc(Cl)c2)ncn1 [6-(3,5-Dichloro-phenyl)-pyrimidine-4-carboxylic acid phenylamide]	77.6

— patent US9145373B2, “Certain kynurenine-3-monooxygenase inhibitors, pharmaceutical compositions, and methods of use thereof” (CHDI FOUNDATION, INC., priority 2008, dated 2015)
